Target: Recombinant human IDO (Homo sapiens, UniProt P14902)
Experiment: Bridge-IT tryptophan fluorescence assay of human IDO-1 inhibition
Format: biochemical
Conditions: recombinant human IDO 7.5 nM, L-tryptophan
Outline: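 Two protocol variants: 100 μM L-Trp for 90 min at 37 °C, or 30 min enzyme–compound pre-incubation at 25 °C, then 50 μM L-Trp for 60 min at 25 °C. Reaction stopped in Bridge-IT solution A for 30 min at 30 °C.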

Chain of Recombinant human IDO (P14902 whole entry): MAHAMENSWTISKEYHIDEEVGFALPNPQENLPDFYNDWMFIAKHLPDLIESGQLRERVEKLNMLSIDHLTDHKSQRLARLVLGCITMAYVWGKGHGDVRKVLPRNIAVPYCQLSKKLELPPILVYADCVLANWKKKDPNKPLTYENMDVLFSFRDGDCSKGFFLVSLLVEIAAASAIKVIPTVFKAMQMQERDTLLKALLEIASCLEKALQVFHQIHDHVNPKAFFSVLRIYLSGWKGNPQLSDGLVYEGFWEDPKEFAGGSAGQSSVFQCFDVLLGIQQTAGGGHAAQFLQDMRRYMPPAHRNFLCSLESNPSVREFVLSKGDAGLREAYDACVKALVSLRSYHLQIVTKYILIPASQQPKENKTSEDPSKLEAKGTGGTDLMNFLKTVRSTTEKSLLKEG

Row | Structure (SMILES) | IC50 [nM]
1 | NC(=O)C1CCC(F)(CCC2c3ccccc3-c3cncn32)CC1 (single isomer, unassigned) [Compound 79d, 4-fluoro-4-[2-[5H-imidazo[4,3-a]isoindol-5-yl]ethyl]cyclohexane-1-carboxamide] | < 100
2 | O=C(O)C1CCC(F)(CCC2c3c(F)cccc3-c3cncn32)CC1 (single isomer, unassigned) [Compound 80a, 4-fluoro-4-(2-[6-fluoro-5H-imidazo[4,3-a]isoindol-5-yl]ethyl)cyclohexane-1-carboxylic acid] | < 100
3 | O=C(O)C1CCC(F)(CCC2c3c(F)cccc3-c3cncn32)CC1 (single isomer, unassigned) [Compound 80b, 4-fluoro-4-(2-[6-fluoro-5H-imidazo[4,3-a]isoindol-5-yl]ethyl)cyclohexane-1-carboxylic acid] | 100 to 1000
4 | NC(=O)C1CCC(F)(CCC2c3c(F)cccc3-c3cncn32)CC1 (single isomer, unassigned) [Compound 81a, 4-fluoro-4-[2-[6-fluoro-5H-imidazo[4,3-a]isoindol-5-yl]ethyl]cyclohexane-1-carboxamide] | 100 to 1000
5 | NC(=O)C1CCC(F)(CCC2c3c(F)cccc3-c3cncn32)CC1 (single isomer, unassigned) [Compound 81b, 4-fluoro-4-[2-[6-fluoro-5H-imidazo[4,3-a]isoindol-5-yl]ethyl]cyclohexane-1-carboxamide] | > 1000
6 | NC(=O)C1CCC(F)(CCC2c3c(F)cccc3-c3cncn32)CC1 (single isomer, unassigned) [Compound 81c, 4-fluoro-4-[2-[6-fluoro-5H-imidazo[4,3-a]isoindol-5-yl]ethyl]cyclohexane-1-carboxamide] | < 100
7 | NC(=O)C1CCC(F)(CCC2c3c(F)cccc3-c3cncn32)CC1 (single isomer, unassigned) [Compound 81d, 4-fluoro-4-[2-[6-fluoro-5H-imidazo[4,3-a]isoindol-5-yl]ethyl]cyclohexane-1-carboxamide] | < 100
8 | O=C(O)C1CCC(F)(CCC2c3ccccc3-c3cncn32)CC1 (single isomer, unassigned) [Compound 82a, 4-fluoro-4-(2-[5H-imidazo[4,3-a]isoindol-5-yl]ethyl)cyclohexane-1-carboxylic acid] | < 100
9 | OC(CC1c2c(Cl)cccc2-c2cncn21)C1(F)CCCCC1 (single isomer, unassigned) [Compound 83a, 2-[6-chloro-5H-imidazo[4,3-a]isoindol-5-yl]-1-(1-fluorocyclohexyl)ethan-1-ol] | > 1000
10 | OC(CC1c2c(Cl)cccc2-c2cncn21)C1(F)CCCCC1 (single isomer, unassigned) [Compound 83b, 2-[6-chloro-5H-imidazo[4,3-a]isoindol-5-yl]-1-(1-fluorocyclohexyl)ethan-1-ol] | 100 to 1000
11 | OC(CC1c2c(Cl)cccc2-c2cncn21)C1(F)CCCCC1 (single isomer, unassigned) [Compound 83c, 2-[6-chloro-5H-imidazo[4,3-a]isoindol-5-yl]-1-(1-fluorocyclohexyl)ethan-1-ol] | > 1000
12 | OC(CC1c2c(Cl)cccc2-c2cncn21)C1(F)CCCCC1 (single isomer, unassigned) [Compound 83d, 2-[6-chloro-5H-imidazo[4,3-a]isoindol-5-yl]-1-(1-fluorocyclohexyl)ethan-1-ol] | < 100
13 | OCC1CCC(F)(CCC2c3c(F)cccc3-c3cncn32)CC1 (single isomer, unassigned) [Compound 84a, [4-fluoro-4-[2-[6-fluoro-5H-imidazo[4,3-a]isoindol-5-yl]ethyl]cyclohexyl]methanol] | > 1000
14 | OCC1CCC(F)(CCC2c3c(F)cccc3-c3cncn32)CC1 (single isomer, unassigned) [Compound 84b, [4-fluoro-4-[2-[6-fluoro-5H-imidazo[4,3-a]isoindol-5-yl]ethyl]cyclohexyl]methanol] | > 1000
15 | OCC1CCC(F)(CCC2c3c(F)cccc3-c3cncn32)CC1 (single isomer, unassigned) [Compound 84c, [4-fluoro-4-[2-[6-fluoro-5H-imidazo[4,3-a]isoindol-5-yl]ethyl]cyclohexyl]methanol] | < 100
16 | OCC1CCC(F)(CCC2c3c(F)cccc3-c3cncn32)CC1 (single isomer, unassigned) [Compound 84d, [4-fluoro-4-[2-[6-fluoro-5H-imidazo[4,3-a]isoindol-5-yl]ethyl]cyclohexyl]methanol] | < 100
17 | OC(CC1c2ncccc2-c2cncn21)C1(F)CCC(F)(F)CC1 (single isomer, unassigned) [Compound 87a, 2-[4,6,9-triazatricyclo[6.4.0.0^[2,6]]dodeca-1(8),2,4,9,11-pentaen-7-yl]-1-(1,4,4-trifluorocyclohexyl)ethan-1-ol] | > 1000
18 | OC(CC1c2ncccc2-c2cncn21)C1(F)CCC(F)(F)CC1 (single isomer, unassigned) [Compound 87b, 2-[4,6,9-triazatricyclo[6.4.0.0^[2,6]]dodeca-1(8),2,4,9,11-pentaen-7-yl]-1-(1,4,4-trifluorocyclohexyl)ethan-1-ol] | > 1000

Row | Structure (SMILES) | IC50 [nM]
19 | OC(CC1c2ncccc2-c2cncn21)C1(F)CCC(F)(F)CC1 (single isomer, unassigned) [Compound 87c, 2-[4,6,9-triazatricyclo[6.4.0.0^[2,6]]dodeca-1(8),2,4,9,11-pentaen-7-yl]-1-(1,4,4-trifluorocyclohexyl)ethan-1-ol] | > 1000
20 | OC(CC1c2ncccc2-c2cncn21)C1(F)CCC(F)(F)CC1 (single isomer, unassigned) [Compound 87d, 2-[4,6,9-triazatricyclo[6.4.0.0^[2,6]]dodeca-1(8),2,4,9,11-pentaen-7-yl]-1-(1,4,4-trifluorocyclohexyl)ethan-1-ol] | 100 to 1000
21 | CC(C)(C)C(=O)N1CCC(C(O)CC2c3ncccc3-c3cncn32)CC1 (single isomer, unassigned) [Compound 88a, 1-[4-[1-hydroxy-2-[4,6,9-triazatricyclo[6.4.0.0^[2,6]]dodeca-1(8),2,4,9,11-pentaen-7-yl]ethyl]piperidin-1-yl]-2,2-dimethylpropan-1-one] | > 1000
22 | CC(C)(C)C(=O)N1CCC(C(O)CC2c3ncccc3-c3cncn32)CC1 (single isomer, unassigned) [Compound 88b, 1-[4-[1-hydroxy-2-[4,6,9-triazatricyclo[6.4.0.0^[2,6]]dodeca-1(8),2,4,9,11-pentaen-7-yl]ethyl]piperidin-1-yl]-2,2-dimethylpropan-1-one] | > 1000
23 | CC(C)(C)C(=O)N1CCC(C(O)CC2c3ncccc3-c3cncn32)CC1 (single isomer, unassigned) [Compound 88c, 1-[4-[1-hydroxy-2-[4,6,9-triazatricyclo[6.4.0.0^[2,6]]dodeca-1(8),2,4,9,11-pentaen-7-yl]ethyl]piperidin-1-yl]-2,2-dimethylpropan-1-one] | > 1000
24 | CC(C)(C)C(=O)N1CCC(C(O)CC2c3ncccc3-c3cncn32)CC1 (single isomer, unassigned) [Compound 88d, 1-[4-[1-hydroxy-2-[4,6,9-triazatricyclo[6.4.0.0^[2,6]]dodeca-1(8),2,4,9,11-pentaen-7-yl]ethyl]piperidin-1-yl]-2,2-dimethylpropan-1-one] | > 1000
25 | CC(C)[C@H](N)C(=O)N1CCC(F)(CCC2c3ccccc3-c3cncn32)CC1 (single isomer, unassigned) [Compound 89a] | > 1000
26 | CC(C)[C@H](N)C(=O)N1CCC(F)(CCC2c3ccccc3-c3cncn32)CC1 (single isomer, unassigned) [Compound 89b] | > 1000
27 | FC1(CCC2c3c(Cl)cccc3-c3cncn32)CCC2(CC1)CC2 (single isomer, unassigned) [Compound 91a, 6-chloro-5-(2-[6-fluorospiro[2.5]octan-6-yl]ethyl)-5H-imidazo[4,3-a]isoindole] | > 1000
28 | FC1(CCC2c3c(Cl)cccc3-c3cncn32)CCC2(CC1)CC2 (single isomer, unassigned) [Compound 91b, 6-chloro-5-(2-[6-fluorospiro[2.5]octan-6-yl]ethyl)-5H-imidazo[4,3-a]isoindole] | > 1000
29 | OC(CC1c2ncccc2-c2cncn21)C1CCOCC1 (single isomer, unassigned) [Compound 92a, 1-(oxan-4-yl)-2-[4,6,9-triazatricyclo[6.4.0.0^[2,6]]dodeca-1(8),2,4,9,11-pentaen-7-yl]ethan-1-ol] | > 1000
30 | OC(CC1c2ncccc2-c2cncn21)C1CCOCC1 (single isomer, unassigned) [Compound 92b, 1-(oxan-4-yl)-2-[4,6,9-triazatricyclo[6.4.0.0^[2,6]]dodeca-1(8),2,4,9,11-pentaen-7-yl]ethan-1-ol] | > 1000
31 | OC(CC1c2ncccc2-c2cncn21)C1CCOCC1 (single isomer, unassigned) [Compound 92c, 1-(oxan-4-yl)-2-[4,6,9-triazatricyclo[6.4.0.0^[2,6]]dodeca-1(8),2,4,9,11-pentaen-7-yl]ethan-1-ol] | > 1000
32 | OC(CC1c2ncccc2-c2cncn21)C1CCOCC1 (single isomer, unassigned) [Compound 92d, 1-(oxan-4-yl)-2-[4,6,9-triazatricyclo[6.4.0.0^[2,6]]dodeca-1(8),2,4,9,11-pentaen-7-yl]ethan-1-ol] | > 1000
33 | FC1(CCC2c3ncccc3-c3cncn32)CCOCC1 (single isomer, unassigned) [Compound 93a, 7-[2-(4-fluorooxan-4-yl)ethyl]-4,6,9-triazatricyclo[6.4.0.0^[2,6]]dodeca-1(8),2,4,9,11-pentaene] | > 1000
34 | FC1(CCC2c3ncccc3-c3cncn32)CCOCC1 (single isomer, unassigned) [Compound 93b, 7-[2-(4-fluorooxan-4-yl)ethyl]-4,6,9-triazatricyclo[6.4.0.0^[2,6]]dodeca-1(8),2,4,9,11-pentaene] | > 1000
35 | FC1(CCC2c3ccccc3-c3cncn32)CCOCC1 (single isomer, unassigned) [Compound 94a, 5-[2-(4-fluorooxan-4-yl)ethyl]-5H-imidazo[4,3-a]isoindole] | > 1000
